Assay results taken from PubChem BioAssay AID248 (DTP/NCI, 2004).
“And” between values parts separate entries of the source, which are not always exact repeats. Identical values can stand only once. Toxic doses and inconclusive results are not listed. No stated cut-off is given here; in the data, active means T/C of 150% or more; inactive means T/C below 125%.

Tested on: L1210 leukemia ip in BDF1 mice, survival T/C
Assay: NCI In Vivo Anticancer Drug Screen. Data for tumor model L1210 Leukemia (intraperitoneal) in B6D2F1 (BDF1) mice
Details: endpoint: mean survival time, higher = longer survival
Outline: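 Each compound was tested against a transplantable tumor grown in mice. The endpoint was survival, with treated animals benchmarked against vehicle controls as a simple ratio.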

[1] = dose: 100.0 mg/kg/injection, schedule: Q01DX009 (ip), vehicle: Klucel (hydroxypropylcellulose) (HPC)
[2] = dose: 100.0 mg/kg/injection, schedule: Q04DX003 (ip), vehicle: Klucel (hydroxypropylcellulose) (HPC)
[3] = dose: 200.0 mg/kg/injection, schedule: Q01DX009 (ip), vehicle: Klucel (hydroxypropylcellulose) (HPC)
[4] = dose: 200.0 mg/kg/injection, schedule: Q04DX003 (ip), vehicle: Klucel (hydroxypropylcellulose) (HPC)
[5] = dose: 400.0 mg/kg/injection, schedule: Q01DX009 (ip), vehicle: Klucel (hydroxypropylcellulose) (HPC)
[6] = dose: 400.0 mg/kg/injection, schedule: Q04DX003 (ip), vehicle: Klucel (hydroxypropylcellulose) (HPC)
[7] = dose: 100.0 mg/kg/injection, schedule: Q01DX001 (ip), vehicle: carboxymethylcellulose (CMC)
[8] = dose: 200.0 mg/kg/injection, schedule: Q01DX001 (ip), vehicle: carboxymethylcellulose (CMC)
[9] = dose: 400.0 mg/kg/injection, schedule: Q01DX001 (ip), vehicle: carboxymethylcellulose (CMC)
[10] = dose: 25.0 mg/kg/injection, schedule: Q04DX003 (ip), vehicle: saline
[11] = dose: 50.0 mg/kg/injection, schedule: Q04DX003 (ip), vehicle: saline
[12] = dose: 50.0 mg/kg/injection, schedule: Q01DX001 (ip), vehicle: carboxymethylcellulose (CMC)
[13] = dose: 100.0 mg/kg/injection, schedule: Q01DX009 (ip), vehicle: saline
[14] = dose: 100.0 mg/kg/injection, schedule: Q04DX003 (ip), vehicle: saline
[15] = dose: 200.0 mg/kg/injection, schedule: Q04DX003 (ip), vehicle: saline
[16] = dose: 400.0 mg/kg/injection, schedule: Q04DX003 (ip), vehicle: saline
[17] = dose: 50.0 mg/kg/injection, schedule: Q01DX009 (ip), vehicle: saline with Tween-80
[18] = dose: 100.0 mg/kg/injection, schedule: Q01DX009 (ip), vehicle: saline with Tween-80
[19] = dose: 200.0 mg/kg/injection, schedule: Q01DX009 (ip), vehicle: saline with Tween-80
[20] = dose: 100.0 mg/kg/injection, schedule: Q01DX001 (ip), vehicle: saline
[21] = dose: 200.0 mg/kg/injection, schedule: Q01DX001 (ip), vehicle: saline
[22] = dose: 400.0 mg/kg/injection, schedule: Q01DX001 (ip), vehicle: saline

Measured: T/C

CCOC(=O)c1cncc(C(=O)OCC)c1
inactive: dose: 50.0 mg/kg/injection, schedule: Q01DX009 (ip), vehicle: Klucel (hydroxypropylcellulose) (HPC) 100 % of control | [1] 100 % of control | [2] 101 % of control | [3] 104 % of control | [4] 92 % of control | [5] 112 % of control | [6] 100 % of control

CCCCCCCCCCCCCCCCCC(CCCCCCCCCCCCCCCC)CCCCCCCCCCCCCCCC
inactive: [7] 96 % of control | [8] 102 % of control | [9] 91 % of control

S=c1[nH]nc(Nc2ccccc2Cl)s1
inactive: [1] 97 % of control | [3] 98 % of control | [5] 109 % of control

O[C@H](c1cc(C(F)(F)F)nc2c(C(F)(F)F)cccc12)[C@@H]1CCCCN1
inactive: dose: 12.5 mg/kg/injection, schedule: Q01DX009 (ip), vehicle: Klucel (hydroxypropylcellulose) (HPC) 94 % of control | dose: 12.5 mg/kg/injection, schedule: Q04DX003 (ip), vehicle: saline 98 % of control | dose: 25.0 mg/kg/injection, schedule: Q01DX009 (ip), vehicle: Klucel (hydroxypropylcellulose) (HPC) 103 % of control | [10] 98 % of control | [11] 97 % of control

Cn1c(=O)[nH]cc(C(=O)O)c1=O
inactive: [2] 91 % of control | [4] 92 % of control | [6] 91 % of control

CN(C)C(=NN=C(N(C)C)N(C)C)N(C)C
inactive: dose: 12.5 mg/kg/injection, schedule: Q04DX003 (sc), vehicle: saline 102 % of control | dose: 25.0 mg/kg/injection, schedule: Q04DX003 (sc), vehicle: saline 107 % of control | dose: 50.0 mg/kg/injection, schedule: Q04DX003 (sc), vehicle: saline 100 % of control | dose: 100.0 mg/kg/injection, schedule: Q04DX003 (sc), vehicle: saline 98 % of control

O=[N+]([O-])c1cccc(/C=N/Nc2nnc(N/N=C/c3cccc([N+](=O)[O-])c3)c3ccccc23)c1
inactive: [12] 98 % of control | [7] 98 % of control | [8] 87 % of control | [9] 93 % of control

CCc1ccccc1NC(=O)N1CCCCC1C (stereo not drawn)
inactive: [1] 102 % of control | [3] 94 % of control

CCOC(=O)CNCc1ccc(C)cc1
inactive: dose: 100.0 mg/kg/injection, schedule: Q01DX009 (ip), vehicle: water 102 % of control | dose: 100.0 mg/kg/injection, schedule: Q04DX003 (ip), vehicle: water 93 % of control | dose: 200.0 mg/kg/injection, schedule: Q01DX009 (ip), vehicle: water 111 % of control | dose: 200.0 mg/kg/injection, schedule: Q04DX003 (ip), vehicle: water 93 % of control | dose: 400.0 mg/kg/injection, schedule: Q01DX009 (ip), vehicle: water 105 % of control | dose: 400.0 mg/kg/injection, schedule: Q04DX003 (ip), vehicle: water 97 % of control

O=C1NC2C3CC(c4ccccc43)C12 (stereo not drawn)
inactive: dose: 100.0 mg/kg/injection, schedule: Q04DX002 (ip), vehicle: Klucel (hydroxypropylcellulose) (HPC) 101 % of control | dose: 200.0 mg/kg/injection, schedule: Q04DX002 (ip), vehicle: Klucel (hydroxypropylcellulose) (HPC) 108 % of control | dose: 400.0 mg/kg/injection, schedule: Q04DX002 (ip), vehicle: Klucel (hydroxypropylcellulose) (HPC) 111 % of control

CC(C)(N)COS(=O)(=O)O
inactive: [13] 106 % of control | [14] 101 % of control | dose: 200.0 mg/kg/injection, schedule: Q01DX009 (ip), vehicle: saline 96 % of control | [15] 114 % of control | dose: 400.0 mg/kg/injection, schedule: Q01DX009 (ip), vehicle: saline 105 % of control | [16] 96 % of control

CCOC(=O)C1CC[N+](=c2cc(-c3ccc(Cl)cc3)ss2)CC1 (stereo not drawn)
inactive: [14] 95 % of control | [15] 96 % of control | [16] 101 % of control

CC[CH2][Sn]([CH2]CC)([CH2]CC)[CH2]CC
inactive: [12] 95 % of control | [7] 86 % of control

O=S(=O)(Cl)c1ccc2cc3ccccc3cc2c1
inactive: [17] 98 % of control | [18] 96 % of control | [19] 102 % of control

CCCOC(=O)Cc1cccc2ccccc12
inactive: dose: 222.0 mg/kg/injection, schedule: Q01DX Z (ip), vehicle: saline 90 % of control | dose: 333.0 mg/kg/injection, schedule: Q01DX Z (ip), vehicle: saline 96 % of control | dose: 500.0 mg/kg/injection, schedule: Q01DX Z (ip), vehicle: saline 96 % of control

N#CSc1nc2ccccc2s1
inactive: dose: 6.0 mg/kg/injection, schedule: Q01DX001 (ip), vehicle: saline 88 % of control | dose: 12.0 mg/kg/injection, schedule: Q01DX001 (ip), vehicle: saline 89 % of control | dose: 25.0 mg/kg/injection, schedule: Q01DX001 (ip), vehicle: saline 98 % of control | dose: 25.0 mg/kg/injection, schedule: Q04DX003 (ip), vehicle: saline with Tween-80 92 % of control | dose: 50.0 mg/kg/injection, schedule: Q04DX003 (ip), vehicle: saline with Tween-80 91 % of control | dose: 100.0 mg/kg/injection, schedule: Q04DX003 (ip), vehicle: saline with Tween-80 96 % of control

CC(C)(C)OC(=O)C(CC(=O)O)NC(=O)OCc1ccccc1 (stereo not drawn) (tested in a mixture with another compound)
inactive: dose: 25.0 mg/kg/injection, schedule: Q01DX009 (ip), vehicle: saline 101 % of control | [10] 94 % of control | dose: 50.0 mg/kg/injection, schedule: Q01DX009 (ip), vehicle: saline 104 % of control | [11] 94 % of control | [13] 106 % of control | [14] 100 % of control and 91 % of control

O/N=C1/CC2CCC(C2)C1(O)c1ccccc1 (stereo not drawn)
inactive: [20] 103 % of control | [21] 113 % of control | [22] 103 % of control

O=[N+]([O-])c1ccc2c(c1)[As](=O)(O)c1cc([N+](=O)[O-])ccc1-2
inactive: dose: 75.0 mg/kg/injection, schedule: Q01DX001 (ip), vehicle: saline 120 % of control

CCOC(=O)CCN(CC)CC
inactive: [14] 97 % of control | [15] 94 % of control | [16] 108 % of control

OC(c1ccccc1)(c1ccccc1)C1CCc2cc3ccccc3nc21 (stereo not drawn)
inactive: [17] 95 % of control | [18] 98 % of control | [19] 95 % of control

CCOC(=O)C(CCP(=O)(OCC)OCC)P(=O)(OCC)OCC (stereo not drawn)
inactive: dose: 12.5 mg/kg/injection, schedule: Q04DX002 (ip), vehicle: saline 99 % of control | dose: 25.0 mg/kg/injection, schedule: Q04DX002 (ip), vehicle: saline 96 % of control | dose: 50.0 mg/kg/injection, schedule: Q04DX002 (ip), vehicle: saline 115 % of control | [20] 101 % of control | [21] 95 % of control | [22] 98 % of control

Cc1ccc(S(=O)(=O)N(C)c2ccc(N(C)S(=O)(=O)c3ccc(C)cc3)cc2)cc1
inactive: [2] 97 % of control | [4] 97 % of control | [6] 97 % of control
